Laboratory results published in patent publication US20080293646A1, “MACROLIDES” (Pfizer Inc, priority 2007, published 2008).
Values after ≈ are worked out from the molar mass of the structure shown. Structures can show the parent of a compound that is named as a salt. Where two headings read alike, the source gives them in different places.

Assays:
[1] = system: H. influenzae Telithromycin (intermediate); assay: MIC, microtiter broth dilution, telithromycin-intermediate H. influenzae; type: cell-based, Haemophilus influenzae; settings: for MIC50 / MIC90: Haemophilus influenzae
[2] = system: S. pneumoniae mefA; assay: MIC, microtiter broth dilution, S. pneumoniae mefA isolates; type: cell-based, Streptococcus pneumoniae; settings: for MIC50 / MIC90: Streptococcus pneumoniae
[3] = molecular target: CYP3A (Homo sapiens, UniProt P08684); assay: CYP3A time-dependent inhibition in human liver microsomes (midazolam probe); settings: pooled human liver microsomes, pH 7.4, probe midazolam (30 μM, 1'-hydroxymidazolam formation)
CYP3A, sequence (P08684 2-503): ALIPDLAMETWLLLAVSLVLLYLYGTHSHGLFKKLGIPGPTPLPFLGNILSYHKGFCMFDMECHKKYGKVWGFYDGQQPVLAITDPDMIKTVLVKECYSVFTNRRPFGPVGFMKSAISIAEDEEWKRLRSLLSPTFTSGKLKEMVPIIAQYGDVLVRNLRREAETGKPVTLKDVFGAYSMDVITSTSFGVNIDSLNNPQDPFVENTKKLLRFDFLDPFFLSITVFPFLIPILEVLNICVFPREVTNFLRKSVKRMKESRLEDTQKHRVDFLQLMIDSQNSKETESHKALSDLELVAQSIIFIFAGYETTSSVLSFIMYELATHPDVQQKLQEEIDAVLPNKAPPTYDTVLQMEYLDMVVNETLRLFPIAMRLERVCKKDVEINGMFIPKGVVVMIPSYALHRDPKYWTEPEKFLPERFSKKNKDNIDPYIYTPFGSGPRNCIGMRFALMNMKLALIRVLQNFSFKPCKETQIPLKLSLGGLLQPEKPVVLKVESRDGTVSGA

[4] = system: S. pyogenes mefA; assay: MIC, microtiter broth dilution, S. pyogenes mefA isolates; type: cell-based, Streptococcus pyogenes; settings: for MIC50 / MIC90: Streptococcus pyogenes
[5] = system: M. catarrhalis; assay: MIC, microtiter broth dilution, M. catarrhalis; type: cell-based, Moraxella catarrhalis; settings: for MIC50 / MIC90: Moraxella catarrhalis
[6] = HLM ER (human liver microsomes extraction ratio); type: in vitro ADME; settings: 1 μM compound, NADPH, 37° C., <0.32 is lower limit of assay
Description: HLM ER: (human liver microsomes extraction ratio). This assay measures clearance of compound over time in the human liver microsome system due to NADPH-dependent oxidative metabolism. […] Assay Procedure: […] The reaction mixture was pre-incubated at 37° C. for 5 minutes before adding betanicotinamide adenine dinucleotide phosphate—reduced tetrasodium salt (NADPH) (1.0 mM). Aliquots of the incubation mixture were removed at 0, 5, 10, 20, 30 and 45 minutes. The aliquots were quenched in acetonitrile containing internal standard. Samples were centrifuged and the resulting supernatant analyzed by liquid chromatography/mass spectrometry (LC/MS/MS), with a Sciex API4000 using multiple reaction monitoring optimized for each test compound. […] The first order disappearance rate constant was determined for each incubation by plotting natural log(LN) substrate concentration (peak area ratio, drug/internal standard) against incubation time and determining the slope of the regression line (k), using data where an accurate first order decay curve could be obtained. Predicted hepatic clearances (CLH) and extraction ratios were calculated according to the following equations: […] where the following constants were: Liver Weight=21 g/kg [human] Microsomal Protein in Incubation=1.52 mg/mL Liver Protein=45 mg/g [human] Liver Blood Flow (QH)=20 mL/min/kg [human]

[7] = system: S. pneumoniae emB/mefA; assay: MIC, microtiter broth dilution, S. pneumoniae ermB/mefA isolates; type: cell-based, Streptococcus pneumoniae; settings: for MIC50 / MIC90: Streptococcus pneumoniae
[8] = system: S. pneumoniae ermB; assay: MIC, microtiter broth dilution, S. pneumoniae ermB isolates; type: cell-based, Streptococcus pneumoniae; settings: for MIC50 / MIC90: Streptococcus pneumoniae
[9] = system: H. influenzae Telithromycin (susceptible); assay: MIC, microtiter broth dilution, telithromycin-susceptible H. influenzae; type: cell-based, Haemophilus influenzae; settings: for MIC50 / MIC90: Haemophilus influenzae
[10] = system: L. pneumophila; assay: microbe, parasite or virus in culture; type: cell-based, Legionella pneumophila; settings: for MIC Range: L. pneumophila, n=10 isolates; for MIC50 / MIC90: Legionella pneumophila
[11] = H. influenzae telithromycin (intermediate), n=12 isolates
[12] = S. pneumoniae mefA, n=39 isolates
[13] = S. pyogenes mefA, n=23 isolates
[14] = S. pneumoniae emB/mefA, n=45 isolates
[15] = S. pneumoniae ermB, n=34 isolates
[16] = H. influenzae telithromycin (susceptible), n=82 isolates
[17] = S. pyogenes mefA, n=23 isolates, read-out: MIC50
[18] = S. pyogenes mefA, n=23 isolates, read-out: MIC90
[19] = H. influenzae telithromycin (intermediate), n=12 isolates, read-out: MIC50
[20] = H. influenzae telithromycin (intermediate), n=12 isolates, read-out: MIC90
[21] = S. pneumoniae mefA, n=39 isolates, read-out: MIC90
[22] = M. catarrhalis, n=30 isolates, read-out: MIC90
[23] = S. pneumoniae emB/mefA, n=45 isolates, read-out: MIC50
[24] = S. pneumoniae emB/mefA, n=45 isolates, read-out: MIC90
[25] = S. pneumoniae ermB, n=34 isolates, read-out: MIC50
[26] = S. pneumoniae ermB, n=34 isolates, read-out: MIC90
[27] = H. influenzae telithromycin (susceptible), n=82 isolates, read-out: MIC50
[28] = H. influenzae telithromycin (susceptible), n=82 isolates, read-out: MIC90

Structure (SMILES) | MIC Range [1, 11] [µg/mL] | MIC Range [2, 12] | MIC50 [2] [µg/mL] | MIC Range [4, 13] [µg/mL] | MIC Range ([5]; M. catarrhalis, n=30 isolates) [µg/mL] | MIC50 [5] [µg/mL] | MIC Range [7, 14] | MIC Range [8, 15] | MIC Range [9, 16] [µg/mL] | MIC Range [10] [µg/mL] | MIC50 [10] [µg/mL] | MIC90 [10] [µg/mL] | MIC50 [4, 17] [µg/mL] | MIC90 [4, 18] [µg/mL] | MIC50 [1, 19] [µg/mL] | MIC90 [1, 20] [µg/mL] | MIC90 [2, 21] [µg/mL] | MIC90 [5, 22] [µg/mL] | MIC50 [7, 23] [µg/mL] | MIC90 [7, 24] [µg/mL] | also measured
CC[C@H]1OC(=O)[C@H](C)C(=O)[C@H](C)[C@@H](O[C@@H]2O[C@H](C)C[C@H](N(C)C)[C@H]2O)[C@](C)(OC)C[C@@H](C)C(=O)[C@H](C)[C@H]2N(C3CN(Cc4c(O)cnc5cccnc45)C3)C(=O)O[C@]12C [Example 1, 3-Descladinosyl-11,12-dideoxy-6-O-methyl-3-oxo-12,11-(oxycarbonyl-(1-((3-hydroxy-[1,5]-naphthyridin-4-yl)methyl)-azetidin-3-yl)-imino)-erythromycin A Fumarate] | 4 to 8 | ≦0.06-1 μg/mL | 0.125 | 0.5 to 1 | 0.008 to 0.25 | 0.03 | ≦0.0625-1 μg/mL | ≦0.0625-2 μg/mL | 1 to 8 | 0.008 to 0.03 | 0.016 | 0.03 | – | – | – | – | – | – | – | – | MIC50 [1]: 4 µg/mL; MIC90 [1]: 8 µg/mL; MIC90 [2]: 0.5 µg/mL; Ki [3]: 24 µM; kinact [3]: 0.0004 s⁻¹; MIC50 [4]: 0.5 µg/mL; MIC90 [4]: 1 µg/mL; MIC90 [5]: 0.06 µg/mL; HLM ER [6]: <0.32; MIC50 [7]: 0.5 µg/mL; MIC90 [7]: 1 µg/mL; MIC50 [8]: ≤ 0.0625 µg/mL; MIC90 [8]: 1 µg/mL; MIC50 [9]: 2 µg/mL; MIC90 [9]: 4 µg/mL
CC1(C)S[C@@H]2[C@H](NC(=O)[C@H](N)c3ccc(O)cc3)C(=O)N2[C@H]1C(=O)O [amoxicillin] | – | – | – | 0.004 to 0.03 | – | – | – | – | – | – | – | – | 0.008 (≈ 0.0219 µM) | 0.016 (≈ 0.0438 µM) | – | – | – | – | – | – | –
CC[C@H]1OC(=O)[C@H](C)[C@@H](O[C@H]2C[C@@](C)(OC)[C@@H](O)[C@H](C)O2)[C@H](C)[C@@H](O[C@@H]2O[C@H](C)C[C@H](N(C)C)[C@H]2O)[C@](C)(O)C[C@@H](C)CN(C)[C@H](C)[C@@H](O)[C@]1(C)O [azithromycin] | – | – | – | – | – | – | – | – | – | 0.03 to 0.06 | 0.06 (≈ 0.0801 µM) | 0.06 (≈ 0.0801 µM) | – | – | – | – | – | – | – | – | –
CC[C@H]1OC(=O)[C@H](C)[C@@H](O[C@H]2C[C@@](C)(OC)[C@@H](O)[C@H](C)O2)[C@H](C)[C@@H](O[C@@H]2O[C@H](C)C[C@H](N(C)C)[C@H]2O)[C@](C)(O)C[C@@H](C)C(=O)[C@H](C)[C@@H](O)[C@]1(C)O [erythromycin] | 8 to 16 | 2 to 16 µg/mL | – | 8 to 32 | 0.03 to 1 | – | – | – | 1 to 16 | – | – | – | 8 (≈ 10.9 µM) | 16 (≈ 21.8 µM) | 16 (≈ 21.8 µM) | 16 (≈ 21.8 µM) | 16 (≈ 21.8 µM) | 0.25 (≈ 0.341 µM) | > 64 | > 64 | MIC50 ([2]; S. pneumoniae mefA, n=39 isolates, read-out: MIC50): 8 µg/mL (≈ 10.9 µM); MIC50 ([5]; M. catarrhalis, n=30 isolates, read-out: MIC50): 0.25 µg/mL (≈ 0.341 µM); MIC50 [8, 25]: > 64 µg/mL; MIC90 [8, 26]: > 64 µg/mL; MIC50 [9, 27]: 8 µg/mL (≈ 10.9 µM); MIC90 [9, 28]: 16 µg/mL (≈ 21.8 µM)
CC[C@H]1OC(=O)[C@H](C)C(=O)[C@H](C)[C@@H](O[C@@H]2O[C@H](C)C[C@H](N(C)C)[C@H]2O)[C@](C)(OC)C[C@@H](C)C(=O)[C@H](C)[C@H]2N(CCCCn3cnc(-c4cccnc4)c3)C(=O)O[C@]12C [telithromycin] | 8 (≈ 9.85 µM) | ≦0.06-0.5 μg/mL | 0.125 (≈ 0.154 µM) | 0.25 to 2 | 0.006 to 0.5 | 0.125 (≈ 0.154 µM) | ≦0.0625-1 μg/mL | ≦0.0625-1 μg/mL | 0.25 to 4 | 0.016 to 0.03 | 0.016 (≈ 0.0197 µM) | 0.016 (≈ 0.0197 µM) | 0.5 (≈ 0.616 µM) | 0.5 (≈ 0.616 µM) | 8 (≈ 9.85 µM) | 8 (≈ 9.85 µM) | 0.5 (≈ 0.616 µM) | 0.25 (≈ 0.308 µM) | 0.5 (≈ 0.616 µM) | 0.5 (≈ 0.616 µM) | MIC50 [8, 25]: ≤ 0.0625 µg/mL; MIC90 [8, 26]: 0.5 µg/mL (≈ 0.616 µM); MIC50 [9, 27]: 1 µg/mL (≈ 1.23 µM); MIC90 [9, 28]: 4 µg/mL (≈ 4.93 µM)
